Laboratory results taken from patent publication US11117903B2, “Pyridine derivatives” (Hoffmann-La Roche Inc., priority 2017, dated 2021).
Read-outs that look alike come from different tables or passages of the source.

Target: T1, human CB2 receptors (Homo sapiens, UniProt P34972)
T1 construct: expressed in transfected cells; host or cells: CHO cells
Test: cAMP assay human CB2
Assay type: cell-based
Settings: for Percent relative efficacy compared to the reference agonist CP55940 for which this value is set to +100%: negative values = inverse agonists, CP55940 = +100%
Protocol: The growth medium was exchanged with Krebs Ringer Bicarbonate buffer with 1 mM IBMX and incubated at 30° C. for 30 min. Compounds were added to a final assay volume of 100 μl and incubated for 30 min at 30° C. […] The time-resolved energy transfer is measured by a TRF reader (Evotec Technologies GmbH), equipped with a ND:YAG laser as excitation source. The plate is measured twice with the excitation at 355 nm and at the emission with a delay of 100 ns and a gate of 100 ns, total exposure time 10s at 730 (bandwidth 30 nm) or 645 nm (bandwidth 75 nm), respectively.
EC50 values were determined using Activity Base analysis (ID Business Solution, Limited).

[1] = CHO cells expressing human CB2 receptors, read-out: cAMP assay human CB2 EC50

T1 sequence (P34972 whole entry): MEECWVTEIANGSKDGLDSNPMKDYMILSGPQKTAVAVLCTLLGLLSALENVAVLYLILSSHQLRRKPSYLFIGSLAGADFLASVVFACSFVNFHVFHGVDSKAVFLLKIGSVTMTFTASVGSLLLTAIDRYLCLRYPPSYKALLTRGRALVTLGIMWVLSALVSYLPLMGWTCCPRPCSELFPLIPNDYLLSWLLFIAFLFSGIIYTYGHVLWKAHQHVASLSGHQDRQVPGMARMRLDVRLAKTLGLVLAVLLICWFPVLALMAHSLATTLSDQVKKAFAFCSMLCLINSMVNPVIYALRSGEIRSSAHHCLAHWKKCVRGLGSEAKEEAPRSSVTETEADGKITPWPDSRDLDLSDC

Compound	EC50	Percent relative efficacy compared to the reference agonist CP55940 for which this value is set to +100%	EC50 [1]
CNC(=O)[C@@H](CC(C)C)NC(=O)c1cc(OCC2CC2)c(Cl)cn1 [Example 12, 5-Chloro-4-(cyclopropylmethoxy)-N-[(2R)-4-methyl-1-(methylamino)-1-oxopentan-2-yl]pyridine-2-carboxamide]	3230 nM	−40.1%	
CC(C)(C)c1nc(-c2cc(OCc3cccc(S(C)(=O)=O)c3)c(C3CC3)cn2)no1 [Example 17, 5-tert-Butyl-3-[5-cyclopropyl-4-[(3-methylsulfonylphenyl)methoxy]pyridin-2-yl]-1,2,4-oxadiazole]		−49.9%	2010 nM
CC(C)(C)OC(=O)N1CC[C@@H](Oc2cc(-c3noc(C(C)(C)C)n3)ncc2C2CC2)C1 [Example 16, tert-Butyl (3R)-3-[2-(5-tert-butyl-1,2,4-oxadiazol-3-yl)-5-cyclopropylpyridin-4-yl]oxypyrrolidine-1-carboxylate]	315 nM	−103.1%	
CCOC(=O)C(CC)(CC)NC(=O)c1cc(OCC2(C)COC2)c(C2CC2)cn1 [Example 19, Ethyl 2-[[5-cyclopropyl-4-[(3-methyloxetan-3-yl)methoxy]pyridine-2-carbonyl]amino]-2-ethylbutanoate]	148 nM	13%	
Cc1nc(C(C)(CC2CC2)NC(=O)c2cc(On3nnc4ccccc43)c(C(F)(F)F)cn2)no1 (stereo not shown) [Example 21, 4-(Benzotriazol-1-yloxy)-N-[1-cyclopropyl-2-(5-methyl-1,2,4-oxadiazol-3-yl)propan-2-yl]-5-(trifluoromethyl)pyridine-2-carboxamide]	87 nM	−147.5%	
Cc1nc(C(C)(CC2CC2)NC(=O)c2cc(OCC3(C)CC3(F)F)c(Cl)cn2)no1 (stereo not shown) [Example 20, 5-Chloro-N-[1-cyclopropyl-2-(5-methyl-1,2,4-oxadiazol-3-yl)propan-2-yl]-4-[(2,2-difluoro-1-methylcyclopropyl)methoxy]pyridine-2-carboxamide]	420 nM	−150.8%	
CC(C)(C)c1nc(-c2cc(OCC3CC3)c(N3CC4(COC4)C3)cn2)no1 [Example 14, 6-[6-(5-tert-Butyl-1,2,4-oxadiazol-3-yl)-4-(cyclopropylmethoxy)pyridin-3-yl]-2-oxa-6-azaspiro[3.3]heptane]	36.7 nM	−65.9%	
CC(C)C[C@@H](CO)NC(=O)c1cc(-c2ccc(Cl)cc2Cl)c(OCC2CC2)cn1 [Example 1, 5-(Cyclopropylmethoxy)-4-(2,4-dichlorophenyl)-N-[(2S)-1-hydroxy-4-methylpentan-2-yl]pyridine-2-carboxamide]	15.2 nM	−40.1%	
Cc1nnc(C(C)(NC(=O)c2cc(OCC(F)(F)F)c(C3CC3)cn2)C2CNC2)o1 (stereo not shown) [Example 18, N-[1-(azetidin-3-yl)-1-(5-methyl-1,3,4-oxadiazol-2-yl)ethyl]-5-cyclopropyl-4-(2,2,2-trifluoroethoxy)pyridine-2-carboxamide]		−48.7%	7210 nM
CC(C)(C)OC(=O)N1CCC[C@H]1COc1cc(-c2noc(C(C)(C)C)n2)ncc1C1CC1 [Example 15, tert-Butyl (2S)-2-[[2-(5-tert-butyl-1,2,4-oxadiazol-3-yl)-5-cyclopropylpyridin-4-yl]oxymethyl]pyrrolidine-1-carboxylate]	1510 nM	−75.2%	
CCC(CC)(NC(=O)c1cc(-c2ccc(Cl)c(Cl)c2)c(OCC2CC2)cn1)C(=O)OC [Example 5, Methyl 2-[[5-(cyclopropylmethoxy)-4-(3,4-dichlorophenyl)pyridine-2-carbonyl]amino]-2-ethylbutanoate]	6.9 nM	−128.6%	
CNC(=O)[C@@H](NC(=O)c1cc(OCC2CC2)c(Cl)cn1)C(C)(C)C [Example 8, 5-Chloro-4-(cyclopropylmethoxy)-N-[(2S)-3,3-dimethyl-1-(methylamino)-1-oxobutan-2-yl]pyridine-2-carboxamide]	4.4 nM	−141.9%	
O=C(N[C@@H](c1ccccn1)C(F)(F)F)c1cc(OCC2CC2)c(Cl)cn1 [Example 9, (−) 5-Chloro-4-(cyclopropylmethoxy)-N-[2,2,2-trifluoro-1-pyridin-2-ylethyl]pyridine-2-carboxamide]	296 nM	−114.7%	
O=C(N[C@H]1CCCC[C@H]1O)c1cc(-c2ccc(Cl)cc2)c(OCC2CC2)cn1 [Example 3, 4-(4-Chlorophenyl)-5-(cyclopropylmethoxy)-N-[(1 S,2R)-2-hydroxycyclohexyl]pyridine-2-carboxamide]	46.6 nM	−85.1%	
O=C(N[C@H](c1cccnc1)C(F)(F)F)c1cc(OCC2CC2)c(Cl)cn1 [Example 10, 5-Chloro-4-(cyclopropylmethoxy)-N-[(1R)-2,2,2-trifluoro-1-pyridin-3-ylethyl]pyridine-2-carboxamide]	1560 nM	−36.8%	
O=C(N[C@@H](CO)c1ccccc1)c1cc(OCC2CC2)c(Cl)cn1 [Example 7, 5-Chloro-4-(cyclopropylmethoxy)-N-[(1R)-2-hydroxy-1-phenylethyl]pyridine-2-carboxamide]	497 nM	−41.7%	
CNC(=O)[C@@H](NC(=O)c1cc(OCC2(C)COC2)c(C2CC2)cn1)C(C)(C)C [Example 13, 5-Cyclopropyl-N-[(2S)-3,3-dimethyl-1-(methylamino)-1-oxobutan-2-yl]-4-[(3-methyloxetan-3-yl)methoxy]pyridine-2-carboxamide]		−158.8%	26.1 nM
CNC(=O)[C@H](CC(C)C)NC(=O)c1cc(OCC2CC2)c(Cl)cn1 [Example 11, 5-Chloro-4-(cyclopropylmethoxy)-N-[(2S)-4-methyl-1-(methylamino)-1-oxopentan-2-yl]pyridine-2-carboxamide]	181 nM	−28.5%	
Cc1nc([C@](C)(CC2CC2)NC(=O)c2cc(-c3ccc(F)nc3)c(OCc3ccccc3)cn2)no1 [Example 23, N-[(2S)-1-Cyclopropyl-2-(5-methyl-1,2,4-oxadiazol-3-yl)propan-2-yl]-4-(6-fluoropyridin-3-yl)-5-phenylmethoxypyridine-2-carboxamide]	1030 nM	−87.7%	
CO[C@H]1CCCC[C@H]1NC(=O)c1cc(-c2ccc(Cl)cc2)c(OCC2CC2)cn1 [Example 6, 4-(4-chlorophenyl)-5-(cyclopropylmethoxy)-N-[(1R,2S)-2-methoxycyclohexyl]pyridine-2-carboxamide]	124 nM	−102.9%	
CC(CC(N)=O)(NC(=O)c1cc(OCc2ccc(F)cn2)c(C2CC2)cn1)C1CC1 (stereo not shown) [Example 22, N-(4-Amino-2-cyclopropyl-4-oxobutan-2-yl)-5-cyclopropyl-4-[(5-fluoropyridin-2-yl)methoxy]pyridine-2-carboxamide]	47.1 nM	−78.4%	
CCC(CC)(NC(=O)c1cc(-c2ccc(Cl)cc2)c(OCC2CC2)cn1)C(=O)OC [Example 4, Methyl 2-[[4-(4-chlorophenyl)-5-(cyclopropylmethoxy)pyridine-2-carbonyl]amino]-2-ethylbutanoate]	14.4 nM	−70.5%	
O=C(N[C@@H]1CCCC[C@@H]1O)c1cc(-c2ccc(Cl)cc2)c(OCC2CC2)cn1 [Example 2, 4-(4-Chlorophenyl)-5-(cyclopropylmethoxy)-N-[(1R,2S)-2-hydroxycyclohexyl]pyridine-2-carboxamide]	257 nM	−90.6%	
